Reference: patent US5952333A, “Quinazoline derivative” (Zeneca Limited, priority 1995, dated 1999)

Legend:
[1] = molecular target: T1, EGF receptor tyrosine kinase (Homo sapiens, UniProt P00533); experiment: In vitro inhibition of the enzyme EGF receptor tyrosine kinase (test (a)); assay type: biochemical; details: approximate value, enzyme partially purified from A431 cells, with EGF, 25° C., 10 minutes
T1 construct: Receptor tyrosine kinase was obtained in partially purified form from A431 cells; endogenous in cells; host or cells: A431 cells (human vulval carcinoma); Triton X-100-solubilised membrane fraction
T1 sequence (P00533 25-1210): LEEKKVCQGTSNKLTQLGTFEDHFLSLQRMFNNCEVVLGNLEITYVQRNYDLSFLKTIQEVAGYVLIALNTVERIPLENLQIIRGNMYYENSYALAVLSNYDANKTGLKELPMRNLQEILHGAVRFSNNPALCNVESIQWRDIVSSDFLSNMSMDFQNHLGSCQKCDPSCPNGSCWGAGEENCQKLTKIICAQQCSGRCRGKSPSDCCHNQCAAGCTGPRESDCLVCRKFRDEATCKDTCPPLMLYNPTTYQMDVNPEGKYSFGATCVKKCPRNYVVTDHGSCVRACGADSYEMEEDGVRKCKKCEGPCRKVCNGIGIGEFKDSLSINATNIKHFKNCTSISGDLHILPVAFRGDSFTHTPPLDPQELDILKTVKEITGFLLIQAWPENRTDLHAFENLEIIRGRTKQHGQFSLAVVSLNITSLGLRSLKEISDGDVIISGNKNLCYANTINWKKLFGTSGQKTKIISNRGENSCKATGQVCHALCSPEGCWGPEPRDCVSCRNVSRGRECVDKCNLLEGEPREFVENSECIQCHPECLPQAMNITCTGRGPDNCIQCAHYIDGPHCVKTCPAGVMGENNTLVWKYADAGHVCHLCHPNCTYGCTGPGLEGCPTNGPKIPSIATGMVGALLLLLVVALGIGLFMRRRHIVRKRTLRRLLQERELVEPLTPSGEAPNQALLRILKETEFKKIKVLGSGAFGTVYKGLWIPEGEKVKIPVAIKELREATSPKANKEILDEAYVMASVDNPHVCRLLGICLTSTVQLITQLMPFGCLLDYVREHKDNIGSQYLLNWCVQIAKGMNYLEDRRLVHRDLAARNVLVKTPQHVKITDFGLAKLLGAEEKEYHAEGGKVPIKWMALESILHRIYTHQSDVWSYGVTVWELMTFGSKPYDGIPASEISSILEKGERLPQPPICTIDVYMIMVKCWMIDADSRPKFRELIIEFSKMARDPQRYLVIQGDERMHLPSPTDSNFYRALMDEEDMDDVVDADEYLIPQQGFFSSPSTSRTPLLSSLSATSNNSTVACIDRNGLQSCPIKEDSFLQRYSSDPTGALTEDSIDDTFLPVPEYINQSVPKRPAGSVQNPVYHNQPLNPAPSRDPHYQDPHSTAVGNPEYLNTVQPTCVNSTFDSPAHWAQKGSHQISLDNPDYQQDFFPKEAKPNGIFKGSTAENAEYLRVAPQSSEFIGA
Description: (a) An in vitro assay which determines the ability of a test compound to inhibit the enzyme EGF receptor tyrosine kinase. Receptor tyrosine kinase was obtained in partially purified form from A431 cells (derived from human vulval carcinoma) by the procedures described below which are related to those described by Carpenter et al., J. Biol. Chem., 1979, 254,4884, Cohen et al., J. Biol. Chem, 1982, 257, 1523 and by Braun et al., J. Biol. Chem., 1984, 259, 2051.
A-431 cells were grown to confluence using Dulbecco's modified Eagle's medium (DMEM) containing 5% fetal calf serum (FCS). The obtained cells were homogenised in a hypotonic borate/EDTA buffer at pH 10.1. The homogenate was centrifuged at 400 g for 10 minutes at 0-4° C. The supernatant was centrifuged at 25,000 g for 30 minutes at 0-4° C. […]
The test compound/EGF mixture solution (5 μl) was added to the test enzyme solution (10 μl) and the mixture was incubated at 0-4° C. for 30 minutes. […] Radioactivity present in the filter paper was measured using a liquid scintillation counter (Sequence A). […]
Receptor tyrosine kinase inhibition was calculated as follows: [formula]
The extent of inhibition was then determined at a range of concentrations of test compound to give an IC50 value.

[2] = tested on: human naso-pharyngeal cancer cell line KB; experiment: In vitro inhibition of the EGF-stimulated growth of the human naso-pharyngeal cancer cell line KB (test (b)); assay type: cell-based; details: 72 h, approximate value, KB cells, EGF (10 ng/ml), 3 days, MTT
Description: (b) An in vitro assay which determines the ability of a test compound to inhibit the EGF-stimulated growth of the human naso-pharyngeal cancer cell line KB.
KB cells were seeded into wells at a density of 1×10^4 -1.5×10^4 cells per well and grown for 24 hours in DMEM supplemented with 5% FCS (charcoal-stripped). Cell growth was determined after incubation for 3 days by the extent of metabolism of MTT tetrazolium dye to furnish a bluish color. Cell growth was then determined in the presence of EGF (10 ng/ml) or in the presence of EGF (10 ng/ml) and a test compound at a range of concentrations. An IC50 value could then be calculated.

[3] = tested on: xenografts of the human vulval epidermoid carcinoma cell line A431; experiment: In vivo inhibition of growth of A431 xenografts in athymic nude mice (test (c)); parameters: species or system athymic nude mice (strain ONU:Alpk); human tumour; details: approximate, daily dose of 50 mg/kg, usually orally, once daily, usually 13 days, relative to untreated controls
Description: (c) An in-vivo assay in a group of athymic nude mice (strain ONU:Alpk) which determines the ability of a test compound (usually administered orally as a ball-milled suspension in 0.5% polysorbate) to inhibit the growth of xenografts of the human vulval epidermoid carcinoma cell line A431. A431 cells were maintained in culture in DMEM supplemented with 5% FCS and 2 mM glutamine. Freshly cultured cells were harvested by trvpsinization and injected subcutaneously (10 million cells/0.1 ml/mouse) into both flanks of a number of donor nude mice. When sufficient tumour material was available (after approximately 9 to 14 days), fragments of tumour tissue were transplanted in the flanks of recipient nude mice (test day 0). Generally, on the seventh day after transplantation (test day 7) groups of 7 to 10 mice with similar-sized tumours were selected and dosing of the test compound was commenced. Once daily dosing of test compound was continued for a total of 13 days (test days 7 to 19 inclusive). In some studies the dosing of the test compound was continued beyond test day 19, for example to test day 26. In each case. on the following test day the animals were killed and the final tumour volume was calculated from measurements of the length and width of the tumours. Results were calculated as a percentage inhibition of tumour volume relative to untreated controls.

[4] = tested on: human mammary carcinoma which expresses EGF receptor tyrosine kinase; details: athymic nude mice; Toi et al., 1990; cited from earlier work

IC50 [1] [nM] | IC50 [2] [nM] | Compound | inhibition of tumour volume [3] [%] | growth of transplanted human mammary carcinoma which expresses EGF receptor tyrosine kinase [4]
~10 | ~200 | COCCNc1cc2c(Nc3cccc(C)c3)ncnc2cc1OC [compound of the invention, 6-(2-methoxyethylamino)-7-methoxy-4-(3'-methylanilino)quinazoline] | ~50 | 
 |  | O=CN/C=C/c1cc(O)ccc1O [erbstatin] |  | specifically attenuates the growth
